From patent US20140342043A1, “Rebaudioside Sweetener Compositions and Food Products Sweetened with Same” (PepsiCo, Inc., priority 2013, published 2014)
Residues, ends and D or L forms follow the SMILES beside them.

Experiments:
[1] = test system: 14 expertly trained panelists; assay: Sensory studies of sweetness with acidified water samples; type: in vivo, human; conditions: for Sweetness (score): acidified water, Aspartame 400 ppm, scale 0 to 15, 15 being the sweetest
Description: Sensory studies with two sets of acidified water samples were performed and are described below, where Set 1: HFCS-55 11.7%; Aspartame 400 ppm, and rebaudioside M 400 ppm; and Set 2: Aspartame 400 ppm, Rebaudioside M 400 ppm and Rebaudioside D 400 ppm. The sensory studies were conducted by 14 expertly trained panelists with two evaluations performed for each set. The scale for scoring was 0 to 15, with 15 being the sweetest. The letters shown in Table 2 and Table 3, along with the numerical sweetness values will be understood by those skilled in the art to designate whether or not a statistically significant difference in taste was found. Thus, it can be seen in Table 1 that for Set 1 a statistically significant difference was found between the three sweeteners. It can be seen in Table 2 that for Set 2 a statistically significant difference in sweetness was found for rebaudioside M versus the other two sweeteners. More generally, it can be seen that for both Set 1 and Set 2, rebaudioside M had noticeably higher sweetness values.

[2] = Solubility in cola syrup preparation; type: physicochemical; conditions: cola syrup for 1-plus-5 throw
Description: Samples of finished ready-to-drink cola beverage were prepared for each of three different formulations. The formulations were identical except that syrup variant 1 used rebaudioside A as the sweetener, syrup variant 2 used rebaudioside D as the sweetener, and syrup variant 3 used rebaudioside M as the sweetener in accordance with one aspect of the invention of the present disclosure. For the ready-to-drink cola beverage samples of formulation variant 1 and formulation variant 3, 2.0 liters of syrup were prepared suitable for use in a 1-plus-5 throw with carbonated water to make the corresponding ready-to-drink cola beverage samples. To prepare variant 1 (comprising rebaudioside A as the sweetener) and variant 3 (comprising rebaudioside M as the sweetener), the ingredients listed in Table 4, below, were added (in the sequence listed) to approximately 1.0-1.5 liter purified water with stirring. Purified water was then added until the syrup was 2 liters in volume. Then 50 mL portions of the syrup were added respectively to 250 mL portions of carbonated water, i.e., a “1-plus-5 throw” to obtain samples of finished ready-to-drink cola beverage corresponding to each of the two syrup variants. […] Specifically, the unsweetened cola beverage samples were made first in sample bottles. Then, to each bottle 400 ppm of Reb D was carefully added in. […]

[3] = Differential scanning calorimetry (FIG. 4); type: physicochemical; conditions: second DSC run showing little change
Source text: FIG. 4 is a differential scanning calorimetry graph for rebaudioside M.

[4] = Taste comparison of rebaudioside M with other potent sweeteners in beverages; type: in vivo
[5] = Table 2, Rebaudioside D 400 ppm, Rebaudioside M 400 ppm
[6] = Table 3, HFCS-55 11.7%, rebaudioside M 400 ppm

Row | Solubility [2] | Thermo-stability [3] | Compound | Sweetness (score) [1, 5] | Sweetness (score) [1, 6] | Sweetness relative to other sweeteners ([1]; conclusion from Table 2 and Table 3, 400 ppm in acidified water) | Sweetness intensity relative to Reb A ([4]; in vivo) | Bitterness relative to the same concentration of rebaudioside A ([4]; otherwise identical acidic aqueous carbonated beverages)
1 | poor solubility |  | C=C1C[C@@]23CC[C@H]4[C@@](C)(CCC[C@@]4(C)C(=O)O[C@@H]4O[C@H](CO)[C@@H](O)[C@H](O)[C@H]4O[C@@H]4O[C@H](CO)[C@@H](O)[C@H](O)[C@H]4O)[C@@H]2CC[C@]1(O[C@@H]1O[C@H](CO)[C@@H](O)[C@H](O[C@@H]2O[C@H](CO)[C@@H](O)[C@H](O)[C@H]2O)[C@H]1O[C@@H]1O[C@H](CO)[C@@H](O)[C@H](O)[C@H]1O)C3 [Rebaudioside D, rebaudioside D, reference compound] | 6.97 |  |  |  | 
2 |  |  | COC(=O)[C@H](Cc1ccccc1)NC(=O)[C@@H](N)CC(=O)O [Aspartame, reference compound] (H-Asp-Phe-OMe) | 6.39 | 6.30 |  |  | 
3 |  | good thermo-stability | C=C1C[C@@]23CC[C@H]4[C@@](C)(CCC[C@@]4(C)C(=O)O[C@@H]4O[C@H](CO)[C@@H](O)[C@H](O[C@@H]5O[C@H](CO)[C@@H](O)[C@H](O)[C@H]5O)[C@H]4O[C@@H]4O[C@H](CO)[C@@H](O)[C@H](O)[C@H]4O)[C@@H]2CC[C@]1(O[C@@H]1O[C@H](CO)[C@@H](O)[C@H](O[C@@H]2O[C@H](CO)[C@@H](O)[C@H](O)[C@H]2O)[C@H]1O[C@@H]1O[C@H](CO)[C@@H](O)[C@H](O)[C@H]1O)C3 [Rebaudioside M, rebaudioside M] | 7.58 | 8.00 | significantly sweeter than aspartame and rebaudioside D | significantly higher than Reb A | significantly lower bitterness
